Measured values reported in ChEMBL document CHEMBL5247656, “Discovery of a Potent, Cooperative, and Selective SOS1 PROTAC ZZ151 with In Vivo Antitumor Efficacy in KRAS-Mutant Cancers” (J Med Chem, 2023).
Activity calls are given as the source filed them. The rule behind the calls is not given here.

Columns and labels:
[1] = target: T1, von Hippel-Lindau disease tumor suppressor/Son of sevenless homolog 1 (Homo sapiens) (UniProt Q07889+P40337); assay: PROTAC activity at VHL/SOS1 in human NCI-H358 cells assessed as induction of SOS1 protein degradation by measuring maximal efficacy at 2 to 2000 nM incubated for 24 hrs by Immunoblot analysis relative to control; format: cell-based; conditions: dose 2-2000 nM
[2] = target: von Hippel-Lindau disease tumor suppressor/Son of sevenless homolog 1/Elongin-B/Elongin-C (Homo sapiens) (UniProt Q07889+P40337+Q15370+Q15369); assay: Binding affinity to GST tagged human SOS1(564 to 1049 residues)-6his tagged human VHL (54 to 213 residues)-human ElonginC (17 to 112 residues)-human ElonginB (1 to 104 residues) expressed in Escherichia coli BL21 (DE3) cells assessed as ternary complex formation by measuring maximal HTRF signals incubated for 15 mins by HTRF analysis
[3] = target: T1, von Hippel-Lindau disease tumor suppressor/Son of sevenless homolog 1 (Homo sapiens); assay: PROTAC activity at VHL/SOS1 in human ASPC1 cells harboring KRAS G12D mutant with shRNA lentivirus mediated VHL knockdown assessed as induction of SOS1 degradation at 1 uM incubated for 24 hrs by Immunoblot analysis; format: cell-based
[4] = target: T1, von Hippel-Lindau disease tumor suppressor/Son of sevenless homolog 1 (Homo sapiens); assay: PROTAC activity at VHL/SOS1 in human NCI-H358 cells harboring KRAS G12C mutant assessed as induction of SOS1 degradation at 1 uM preincubated with VHL ligand for 4 hrs followed by compound treatment and measured after 24 hrs by Immunoblot analysis; format: cell-based
[5] = target: von Hippel-Lindau disease tumor suppressor/Son of sevenless homolog 1 (Homo sapiens, UniProt P40337+Q07889, G12C); assay: PROTAC activity at VHL/SOS1 in human MIA PaCa-2 cells harboring KRAS G12C mutant assessed as induction of SOS1 degradation incubated for 24 hrs by Immunoblot analysis; format: cell-based; conditions: pooled result: one value given for 16 cell lines, strains, targets or settings
[6] = target: von Hippel-Lindau disease tumor suppressor/Son of sevenless homolog 1 (Homo sapiens, UniProt P40337+Q07889, Q61H); assay: PROTAC activity at VHL/SOS1 in human NCI-H460 cells harboring KRAS Q61H mutant assessed as induction of SOS1 degradation incubated for 24 hrs by Immunoblot analysis; format: cell-based
[7] = target: T1, von Hippel-Lindau disease tumor suppressor/Son of sevenless homolog 1 (Homo sapiens); assay: PROTAC activity at VHL/SOS1 in human MIA PaCa-2 cells harboring KRAS G12C mutant assessed as induction of SOS1 degradation by measuring maximal efficacy at 1 to 2000 nM incubated for 24 hrs by Immunoblot analysis relative to control; format: cell-based; conditions: dose 1-2000 nM
[8] = target: T1, von Hippel-Lindau disease tumor suppressor/Son of sevenless homolog 1 (Homo sapiens); assay: PROTAC activity at VHL/SOS1 in human ASPC1 cells harboring KRAS G12D mutant assessed as induction of SOS1 degradation by measuring maximal efficacy at 1 to 2000 nM incubated for 24 hrs by Immunoblot analysis relative to control; format: cell-based; conditions: dose 1-2000 nM
[9] = target: T1, von Hippel-Lindau disease tumor suppressor/Son of sevenless homolog 1 (Homo sapiens); assay: PROTAC activity at VHL/SOS1 in human HPAF-II cells harboring KRAS G12D mutant assessed as induction of SOS1 degradation by measuring maximal efficacy at 1 to 2000 nM incubated for 24 hrs by Immunoblot analysis relative to control; format: cell-based; conditions: dose 1-2000 nM
[10] = target: T1, von Hippel-Lindau disease tumor suppressor/Son of sevenless homolog 1 (Homo sapiens); assay: PROTAC activity at VHL/SOS1 in human SNU1 cells harboring KRAS G12D mutant assessed as induction of SOS1 degradation by measuring maximal efficacy at 1 to 2000 nM incubated for 24 hrs by Immunoblot analysis relative to control; format: cell-based; conditions: dose 1-2000 nM
[11] = tested on: NCI-H358; assay: Antiproliferative activity against human NCI-H358 cells harboring KRAS G12C mutant assessed as inhibition of cell proliferation incubated for 7 days by CellTiterGlo-3D proliferation assay; format: functional, cell-based; conditions: NCI-H358, 168 h
[12] = tested on: LoVo; assay: Antiproliferative activity against human LoVo cells harboring KRAS G13D mutant assessed as inhibition of cell proliferation incubated for 7 days by CellTiterGlo-3D proliferation assay; format: functional, cell-based; conditions: 168 h
[13] = tested on: NCI-H460; assay: Antiproliferative activity against human NCI-H460 cells harboring KRAS […] mutant assessed as inhibition of cell proliferation incubated for 7 days by CellTiterGlo-3D proliferation assay; format: functional, cell-based; conditions: time 7.0 day
[14] = target: T1, von Hippel-Lindau disease tumor suppressor/Son of sevenless homolog 1 (Homo sapiens); assay: PROTAC activity at VHL/SOS1 in human NCI-H358 cells harboring KRAS G12C mutant assessed as induction of SOS1 degradation at 1 uM incubated for 2 to 4 hrs by Immunoblot analysis; format: cell-based; conditions: time 2-4 hrs
[15] = target: T1, von Hippel-Lindau disease tumor suppressor/Son of sevenless homolog 1 (Homo sapiens); assay: PROTAC activity at VHL/SOS1 in human A549 cells harboring KRAS G12S mutant assessed as induction of SOS1 degradation at 1 uM incubated for 2 to 4 hrs by Immunoblot analysis; format: cell-based; conditions: time 2-4 hrs
[16] = AUC in BALB/c mouse at 10 mg/kg, ip measured upto 24 hrs by LC-MS/MS analysis; format: ADME, organism-based; design: time < 24 hrs, dose 10 mg/kg, route ip; conditions: in vivo
[17] = tested on: SW-620; assay: Antitumor activity against human SW620 cells harboring KRAS G12V mutant xenografted in BALB/c nude mouse assessed as tumor growth inhibition at 10 mg/kg, ip administered once daily for 2 weeks relative to control; format: functional; conditions: SW-620, 336 h, read-out: TGI
[18] = Toxicity in BALB/c nude mouse xenografted with human ASPC1 cells harboring KRAS G12D mutant assessed as body weight loss at 10 to 20 mg/kg, ip administered once daily for 3 weeks; format: organism-based; conditions: in vivo, 504 h, dose 10-20 mg/kg
[19] = target: T1, von Hippel-Lindau disease tumor suppressor/Son of sevenless homolog 1 (Homo sapiens); assay: In vivo PROTAC activity at VHL/SOS1 in human SW620 cells harboring KRAS G12V mutant xenografted BALB/c nude mouse assessed as decrease in phosphorylated ERK expression at 10 to 20 mg/kg, ip administered once daily for 2 weeks by Immunoblot analysis; format: functional, organism-based; conditions: SW-620, dose 10-20 mg/kg

With `COc1cc2nc(C)nc(N[C@H](C)c3cc(N)cc(C(F)(F)F)c3)c2cc1C1CCN(C(=O)CCCCCC(=O)N[C@H](C(=O)N2C[C@H](O)C[C@H]2C(=O)N[C@@H](C)c2ccc(-c3scnc3C)cc2)C(C)(C)C)CC1` the Emax [1] was 100%, the Activity [2] was “Active” and the Activity [3] was “inactive”. For the same molecule, the Activity [4] was “inactive”, the EC50 [5] was 0.00841 µM and the EC50 [6] was 0.0817 µM. The Emax [7] was over 95%, the Emax [8] was over 95% and the Emax [9] was over 95%. For the same molecule, the Emax [10] was over 95%, the IC50 [11] was 0.0129 µM and the IC50 [12] was 0.0445 µM. The inhibition [13] was “inactive”, the Activity [14] was “Active” and the Activity [15] was “Active”. For the same molecule, the AUC at 24 h [16] was 14100 ng·h/mL, the inhibition in vivo at 10 mg/kg [17] was 46.5% and the Activity [18] was “Non-Toxic”. For the same molecule, the Activity [19] was “Active”.
